Test results: US20060194800A1, “Pteridine derivatives as nitric oxide synthase activators” (University of Strathclyde, priority 2005, published 2006)
Entries after “also recorded” stand apart in the source; their conditions may differ.

Key:
rat pulmonary artery = assay: Rat pulmonary artery ring relaxation (endogenous tetrahydrobiopterin present); conditions: normal rings, phenylephrine-contracted
Protocol: (§1) Rings (5 mm long) of rat pulmonary artery and aorta, were supported on a pair of intraluminal wires at 1 gm tension for one hour and then contracted with their EC50 phenylephrine concentration, which for pulmonary artery was 3.6×10^−8 M (derived from preliminary experiments) and for aorta was 11.8×10^−8 M (from the previously published literature). The rings were then relaxed with carbachol (10 μM). If the relaxation to carbachol was >75%, then the tissues were used to generate dose responses by addition of tetrahydrobiopterin (BH4) or the analogues. Stock BH4 was stored at −20° C. and the dilutions were prepared using saline just before adding the drug into the bath. Solutions of analogues were stored at 4° C. Cumulatively increasing concentrations of the analogues were added to the bath and the extent of relaxation was measured when it had stabilised. Another ring from the same rat was treated in parallel with the solvent for the analogue. The solvent used was NH4OH. The results are shown graphically in FIGS. 1 and 2.

rat aorta [1] = assay: Rat aorta ring relaxation (endogenous tetrahydrobiopterin present); conditions: normal rings, phenylephrine-contracted
Protocol: as §1

rat aorta [2] = assay: BH4 depleted (DAHP) rat aorta relaxation; conditions: DAHP 10^-2 M for 6 h, tetrahydrobiopterin depleted
Protocol: Rat pulmonary artery or aorta rings (as above) were placed in 15 ml tubes containing 2-3 ml of MEM (minimal essential medium) solution containing 0.1% bovine serum albumin, 100 U/ml penicillin and […] streptomycin. Some of the tubes in addition received diamino-hydroxy-pyrimidine (DAHP) 10^−2 M, an inhibitor of GTP cyclohydrolase, the rate-limiting step in tetrahydrobiopterin synthesis. The tubes were incubated at 37° C. for six hours. […] After the incubation with DAHP or the control incubation with the medium (MEM) alone, the rings were removed and then their relaxation in response to the analogue (or solvent NH4OH) was tested as above. Dose response curves of DAHP-treated tissues were compared to the control tissues treated in MEM alone for 6 hrs. The results are shown graphically in FIGS. 3 and 4. The above procedures were used to mimic cardiovascular disease, by treating aorta and pulmonary artery rings with an inhibitor of the enzyme GTP cyclohydrolase, which is the rate-limiting step in the formation of tetrahydrobiopterin by cells. Treatment with this inhibitor, DAHP, for 6 hours reduced endogenous tetrahydrobiopterin levels in arteries to 4% of the normal content. […] This was found in both pulmonary artery and aorta (FIGS. 3 and 4). […] The only effect seen was a contraction—the opposite to the action of WSG1002—at the highest concentration of tetrahydrobiopterin. […]

iNOS = target: T1, iNOS (Mus musculus, UniProt P29477); assay: Macrophage assay (iNOS), macrophages depleted of tetrahydrobiopterin by DAHP; assay type: cell-based
T1 construct: stimulated macrophages that produce iNOS; endogenous in cells; host or cells: primary mouse macrophages (from femur), LPS-stimulated, DAHP-treated
T1 sequence (P29477 whole entry): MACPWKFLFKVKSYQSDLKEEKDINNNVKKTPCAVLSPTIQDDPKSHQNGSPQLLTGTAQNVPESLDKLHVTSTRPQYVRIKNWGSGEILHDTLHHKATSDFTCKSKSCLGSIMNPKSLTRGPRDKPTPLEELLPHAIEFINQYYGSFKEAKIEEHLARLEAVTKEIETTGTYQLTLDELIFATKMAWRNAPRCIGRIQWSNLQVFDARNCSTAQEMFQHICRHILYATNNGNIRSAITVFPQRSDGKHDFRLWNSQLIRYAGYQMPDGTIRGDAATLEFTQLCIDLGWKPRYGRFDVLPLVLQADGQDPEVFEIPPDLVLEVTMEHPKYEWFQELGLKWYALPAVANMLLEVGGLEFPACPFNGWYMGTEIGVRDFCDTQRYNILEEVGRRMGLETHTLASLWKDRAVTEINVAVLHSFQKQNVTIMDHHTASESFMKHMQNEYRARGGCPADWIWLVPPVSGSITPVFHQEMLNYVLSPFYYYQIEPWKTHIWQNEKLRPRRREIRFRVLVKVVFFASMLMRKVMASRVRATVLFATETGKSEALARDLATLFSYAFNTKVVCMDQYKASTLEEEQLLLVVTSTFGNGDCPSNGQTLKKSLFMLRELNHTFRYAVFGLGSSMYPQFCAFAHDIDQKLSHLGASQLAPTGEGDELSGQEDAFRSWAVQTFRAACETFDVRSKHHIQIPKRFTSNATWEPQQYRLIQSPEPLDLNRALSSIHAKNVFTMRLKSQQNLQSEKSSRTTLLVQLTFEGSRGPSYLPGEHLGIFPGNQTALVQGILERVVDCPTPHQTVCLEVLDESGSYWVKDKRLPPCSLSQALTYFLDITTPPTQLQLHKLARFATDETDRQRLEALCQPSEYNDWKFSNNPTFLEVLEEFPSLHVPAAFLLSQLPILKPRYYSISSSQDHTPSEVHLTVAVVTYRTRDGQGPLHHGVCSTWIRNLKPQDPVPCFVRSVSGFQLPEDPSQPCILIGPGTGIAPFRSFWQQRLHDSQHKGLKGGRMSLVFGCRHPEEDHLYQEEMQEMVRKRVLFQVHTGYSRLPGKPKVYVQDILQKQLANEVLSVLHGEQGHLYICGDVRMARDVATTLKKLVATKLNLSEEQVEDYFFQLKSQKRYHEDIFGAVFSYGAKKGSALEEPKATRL

rat lungs = assay: Calcium ionophore-induced pulmonary vasodilation in perfused lungs of rats treated with WSG1002; assay type: in vivo; conditions: 14.1 mg/kg/day s.c.
Protocol: Rats were maintained in a chamber containing atmospheric air at 550 mbar for 14 days.
A group of normotensive and a group of pulmonary hypertensive rats received daily subcutaneous injections of WSG1002 in a dose of 14.1 mg/kg/day during the time that they were in the hypoxic chamber. Other groups of normotensive and pulmonary hypertensive rats had no drugs and are used as control comparison groups. These studies used lungs from the four groups of rats (1) pulmonary hypertensive and treated with WSG1002, (2) normotensive and treated with WSG1002, (3) pulmonary hypertensive and not treated with WSG1002 (4) normotensive and not treated with WSG1002.
The rats lungs were perfused at constant flow through the pulmonary artery with measurement of perfusion pressure and maintained at 37° C. […]
The lungs were precontracted with the thromboxane A2 mimetic, 9,11-dideoxy-11α,9α-epoxymethanoprostaglandin F2α (U46619, 3×10^−5 M) given as a bolus dose via an injection port. […] Following return to 20% O2, the lungs were precontracted again with a bolus dose of U46619 and relaxation responses to the endothelium-dependent vasorelaxant, calcium ionophore were measured by adding it in increasing doses to the perfusate. The data was plotted as concentration-response curves from which IC50 values were calculated using Biograph program by fitting the curves to the Hill equation y=RMax/(1+(x/EC50)ˆP).

activation at 1 µM (iNOS; 72 h, tested at 1 microM in macrophages, P = promotes NOS activity, read-out: iNOS effect *H155): 20 to 50% | stimulation of nitric oxide synthesis vs controls (iNOS; DAHP 10^-2 M depleted macrophages, 72 hrs): increases were statistically significant | IC50 for calcium ionophore relaxation (rat lungs; normotensive rats, untreated 1.5 μM): 1100 nM | IC50 for calcium ionophore relaxation (rat lungs; pulmonary hypertensive (hypoxic) rats, untreated 1.7 μM): 1200 nM
SMILES: CC(=O)C1=Nc2c(nc(N)[nH]c2=O)NC1(C)C [wsg1002, 6-Acetyl-2-amino-7,7-dimethyl-7,8-dihydro-3H-pteridin-4-one]
relaxation of rat pulmonary artery rings (rat pulmonary artery): no action; also recorded: no effect | relaxation of rat aorta rings (rat aorta [1]): no action; also recorded: no effect | relaxation of rat aorta rings (rat aorta [2]): significant and physiologically important vasodilatation; also recorded: significant relaxation
